The values below are quoted from earlier work in patent US8007820B2, “Wide spectrum insecticide and miticide composition” (W. Neudorff GmbH KG, priority 2005, dated 2011).

For the data set the following is noted: as formulated material.

Regarding Spinosad, the shelf life result is given as “about three”.
